Several values for one entry are separate records, joined by “and”; a condition that tells them apart may be missing. Equal entries are not always repeated.
Tests used:
[1] = system: penicillin hypersensitivity (patients); assay: Comparison of skin tests with penicilloyl-poly-L-lysine and penicillin G (Table III); format: in vivo, human; settings: 1163 tested
Protocol: One of the uses for the conjugates of this invention is in skin testing for penicillin hypersensitivity. The conjugated compositions are prepared for skin testing by first dissolving the composition in buffered isotonic solutions, having a pH in the range from 7 to 8. For example, the conjugates prepared above may be diluted with aqueous solutions 0.15 M NaCl in 0.01 M phosphate, pH 7.6. In addition, other physiological salt solutions may be used.
Intradermal injections may be made of the foregoing solutions with a 26 guage needle, the volume injected may be generally about 0.01 to 0.03 cc. Alternatively, the conjugate may be applied by the scratch test technique. The development of a wheal at the injection site after about 20 minutes indicates a positive reaction, and penicillin hypersensitivity.
Penicillin hypersensitivity tests carried out with the conjugate compositions of this invention reflect the numerous advantages of penicillin hypersensitivity determinations made with such compositions. […] In Table II the distribution of skin reactions is shown by history of penicillin therapy and hypersensitivity. […] (See column 2, for example, showing the percentages of patients tested who had […] skin test.)

[2] = system: penicillin hypersensitivity (patients); assay: Clinical evaluation by 26 investigators: scratch/intradermal skin tests with PPL and Penicillin G (Tables IV-VII, IX-XI); format: in vivo, human; settings: for TOTAL (+) No. / TOTAL (+) Percent of total positive: skin reactive penicillin allergy patients
Protocol: Twenty-six clinical investigators contributed a total of 1160 cases to the evaluation. Patients were tested according to a protocol as follows:
1. All patients being subjected to allergy investigation were to be tested for penicillin hypersensitivity. Two preparations were to be used. These are:
2. Penicillin G (Benzyl Penicillin) in a concentration of 10,000 units per cc.
For maximum safety, it was recommended that the tests first be done by the scratch technique. Intradermal tests were then to be done on those showing negative scratch tests. In cases where the penicillin sensitivity was suspected to be of a violent character, more dilute reagents were recommended at the discretion of the individual investigator.
A uniform technique was recommended for the performance of the intradermal tests. Only a minimal amount of testing reagent was to be injected so as to make a barely discernible intradermal bleb. The amount necessary for this injection is about 0.01 to 0.03 cc. It was recognized that the intrepretation of the test results is an important matter. The reactions were to be recorded in terms of (1) the time required for the appearance of a reaction, (2) the size of erythema and (3) the size of whealing. These were to be recorded as actual measurements. Some objective measurement of dermographism was also to be recorded.
It was also contemplated that all patients who were to be treated with penicillin be tested as recommended above, even though they had previously received penicillin with impunity.
A comprehensive clinical history was takan on each patient with particular regard to previous penicillin therapy, and reaction.
In order to properly analyze the data on such a large number of patients, a data processing system was utilized.
Table IV summarizes the skin test results on all patients, without regard to other specific factors. […] It will also be noted that a significant number of patients reacted only to PPL, and another group only to Pen G. Therefore, to detect the maximum number of reactors, both test reagents would be required. A technical problem was classification of the ambiguous or borderline reactors, particularly those showing only erythema. Attempts to correlate the appearance of the erythematous flare without wheal formation with a history of penicillin hypersensitivity were unsuccessful. In some instances, however, erythema without wheal did appear to be associated with hypersensitivity to the antibiotic. The time of development of erythema without wheal varied widely from a few minutes to more than 7 days which also made its importance questionable. as a diagnostic sign. For these reasons erythema alone responses were counted with the negatives. In some instances, however, data will be presented in which erythema without wheal are counted as positive responses (figures appearing in parentheses).

[3] = Group I (675 patients): penicillin Rx, no hypersensitivity, erythema only counted as negative
[4] = Group I (675 patients): penicillin Rx, no hypersensitivity, parentheses: erythema only (ambiguous) counted as positive
[5] = Group II (352 patients): penicillin Rx & hypersensitive, erythema only counted as negative
[6] = Group II (352 patients): penicillin Rx & hypersensitive, parentheses: erythema only (ambiguous) counted as positive
[7] = Group III (70 patients): no penicillin Rx in past, erythema only counted as negative
[8] = Group III (70 patients): no penicillin Rx in past, parentheses: erythema only (ambiguous) counted as positive
[9] = Group IV (56 patients): no data, erythema only counted as negative
[10] = Group IV (56 patients): no data, parentheses: erythema only (ambiguous) counted as positive
[11] = TOTALS (1153 patients), erythema only counted as negative
[12] = TOTALS (1153 patients), parentheses: erythema only (ambiguous) counted as positive
[13] = TOTALS, all patients (1153 tested), erythema only counted as negative
[14] = TOTALS, all patients (1153 tested), parentheses: erythema only (ambiguous) counted as positive
[15] = history of therapy: Multi Courses (177 tested)
[16] = history of therapy: One Course (249 tested)
[17] = history of therapy: One Dose (152 tested)
[18] = history of therapy: TOTALS (578 tested)
[19] = reason for testing: "Penicillin" (240 tested)
[20] = reason for testing: Other Substances (463 tested)
[21] = reaction between 30 minutes and 24 hours post therapy, erythema only counted as negative
[22] = reaction between 30 minutes and 24 hours post therapy, parentheses: erythema only (ambiguous) counted as positive
[23] = reaction more than 24 hours post therapy, erythema only counted as negative
[24] = reaction more than 24 hours post therapy, parentheses: erythema only (ambiguous) counted as positive
[25] = reaction within 30 minutes post therapy, erythema only counted as negative
[26] = reaction within 30 minutes post therapy, parentheses: erythema only (ambiguous) counted as positive
[27] = type of hypersensitivity reaction: Skin (309 tested)
[28] = type of hypersensitivity reaction: Visceral (43 tested)

What does the source list for `CC1(C)S[C@@H]2[C@H](NC(=O)Cc3ccccc3)C(=O)N2[C@H]1C(=O)O` [PG, Benzyl Penicillin, reference compound]?
POSITIVE SKIN TESTS % [1]: 14.3%; Positive Skin Tests, Number of Patients [1]: 166; Skin Test (+) No. [2, 3]: 24; Skin Test (+) Percent [2, 3]: 3.6%; Skin Test (-) No. [2, 3]: 651; Skin Test (-) Percent [2, 3]: 96.4%; Skin Test (+) No. [2, 4]: 56; Skin Test (+) Percent [2, 4]: 8.3%; Skin Test (-) No. [2, 4]: 619; Skin Test (-) Percent [2, 4]: 91.7%; Skin Test (+) No. [2, 5]: 47; Skin Test (+) Percent [2, 5]: 13.4%; Skin Test (-) No. [2, 5]: 305; Skin Test (-) Percent [2, 5]: 86.6%; Skin Test (+) No. [2, 6]: 65; Skin Test (+) Percent [2, 6]: 18.5%; Skin Test (-) No. [2, 6]: 287; Skin Test (-) Percent [2, 6]: 81.5%; Skin Test (-) No. [2, 7]: 70; Skin Test (-) Percent [2, 7]: 100.0%; Skin Test (+) No. [2, 8]: 5; Skin Test (+) Percent [2, 8]: 7.1%; Skin Test (-) No. [2, 8]: 65; Skin Test (-) Percent [2, 8]: 92.9%; Skin Test (+) No. [2, 9]: 1; Skin Test (+) Percent [2, 9]: 1.8%; Skin Test (-) No. [2, 9]: 55; Skin Test (-) Percent [2, 9]: 98.2%; Skin Test (+) No. [2, 10]: 3; Skin Test (+) Percent [2, 10]: 5.3%; Skin Test (-) No. [2, 10]: 53; Skin Test (-) Percent [2, 10]: 94.6%; SKIN TEST RESPONSE No. ([2]; No reactions (675 tested)): 24; SKIN TEST RESPONSE Percent ([2]; No reactions (675 tested)): 3.6%; Skin Test (-) No. [2, 11]: 1081; Skin Test (-) Percent [2, 11]: 93.8%; Skin Test (-) No. [2, 12]: 1024; Skin Test (-) Percent [2, 12]: 88.8%; Skin Test (+) No. [2, 13]: 72; Skin Test (+) Percent [2, 13]: 6.2% and 6.3%; Skin Test (+) No. [2, 14]: 129; Skin Test (+) Percent [2, 14]: 11.2%; positive skin tests, patients positive/patients in group ([2]; delayed (after 24 hours) group): 17/144; positive skin tests, percent of group ([2]; delayed (after 24 hours) group, 144 patients): 11.8%; Skin Reactions PPL- / PEN G- No. [2, 15]: 10; Skin Reactions PPL- / PEN G- Percent [2, 15]: 5.6%; Skin Reactions PPL- / PEN G- No. [2, 16]: 8; Skin Reactions PPL- / PEN G- Percent [2, 16]: 3.2%; Skin Reactions PPL- / PEN G- No. [2, 17]: 17; Skin Reactions PPL- / PEN G- Percent [2, 17]: 11.2%; Skin Reactions PPL- / PEN G- No. [2, 18]: 35; Skin Reactions PPL- / PEN G- Percent [2, 18]: 6.1%; positive skin tests, patients positive/patients in group ([2]; immediate reacting group (within 30 minutes)): 17/56; positive skin tests, percent of group ([2]; immediate reacting group (within 30 minutes), 56 patients): 30.4%; percent of skin-test positive patients that would be missed if only this reagent were used as skin test antigen ([2]; immediate reactor group): 45%; Skin Test (+) No. [2, 19]: 24; Skin Test (+) Percent [2, 19]: 10.0%; Skin Test (+) No. [2, 20]: 9; Skin Test (+) Percent [2, 20]: 1.9%; safety of skin testing ([2]; scratch and intradermal skin testing of patients): safe; TOTAL (+) No. [2, 21]: 17; TOTAL (+) Percent of total positive [2, 21]: 65.4%; TOTAL (+) No. [2, 22]: 21; TOTAL (+) Percent of total positive [2, 22]: 67.7%; TOTAL (+) No. [2, 23]: 17; TOTAL (+) Percent of total positive [2, 23]: 51.5%; TOTAL (+) Percent of total positive ([2]; reaction more than 24 hours post therapy, erythema only counted as negative, listed as Penicillin G): ≤ 51.5%; TOTAL (+) No. [2, 24]: 22; TOTAL (+) Percent of total positive [2, 24]: 50.0%; TOTAL (+) No. [2, 25]: 17; TOTAL (+) Percent of total positive [2, 25]: 54.8%; TOTAL (+) Percent of total positive ([2]; reaction within 30 minutes post therapy, erythema only counted as negative, listed as Pen G): 55%; TOTAL (+) Percent of total positive ([2]; reaction within 30 minutes post therapy, erythema only counted as negative, listed as Penicillin G): 54.8%; TOTAL (+) No. [2, 26]: 17; TOTAL (+) Percent of total positive [2, 26]: 47.2%; SKIN TEST RESPONSE No. [2, 27]: 39; SKIN TEST RESPONSE Percent [2, 27]: 12.6%; SKIN TEST RESPONSE No. [2, 28]: 14; SKIN TEST RESPONSE Percent [2, 28]: 32.6%

— patent US3979508A, “Compositions and methods therewith for penicillin hypersensitivity detection” (Kremers-Urban Company, priority 1975, dated 1976)
